Measurements from patent US7282504B2, “Kinase inhibitors” (Amgen Inc., priority 2000, dated 2007).

Assays:
Assay type in all cases: biochemical
[1] = molecular target: T1, KDR-1 (Homo sapiens, UniProt P35968); experiment: Kinase inhibition, 33P transfer to plate-bound substrate: KDR-1
T1 construct: Kinases are expressed as either kinase domains or full-length constructs; made in house
Source text: (§1) The inhibitor compounds described herein are screened in the following manner. Kinases suitable for use in the following protocol to determine kinase activity of the compounds described herein include, but are not limited to: Lck, Lyn, Src, Fyn, Syk, Zap-70, Itk, Tec, Btk, EGFR, ErbB2, Kdr, Flt-1, Flt-3, Tek, c-Met, InsR, and AKT.
(§2) Kinases are expressed as either kinase domains or full-length constructs fused to glutathione S-transferase (GST) or polyHistidine tagged fusion proteins in either E. coli or Baculovirus-High Five expression systems. They are purified to near homogeneity by affinity chromatography essentially as previously described (Lehr et al., 1996; Gish et al., 1995). In some instances, kinases are co-expressed or mixed with purified or partially purified regulatory polypeptides prior to measurement of activity.
(§3) Kinase activity and inhibition are measured essentially by established protocols (Braunwalder et al., 1996). Briefly, The transfer of ^33PO4 from ATP to the synthetic substrates poly(Glu, Tyr) 4:1 or poly(Arg, Ser) 3:1 attached to the bioactive surface of microtiter plates serves as the basis to evaluate enzyme activity. After an incubation period, the amount of phosphate transferred is measured by first washing the plate with 0.5% phosphoric acid, adding liquid scintillant, and then counting in a liquid scintillation detector. The IC50 is determined by the concentration of compound that causes a 50% reduction in the amount of ^33P incorporated onto the substrate bound to the plate.

[2] = molecular target: T2, Lck-1 (Homo sapiens, UniProt P06239); experiment: Kinase inhibition, 33P transfer to plate-bound substrate: Lck-1
T2 construct: Kinases are expressed as either kinase domains or full-length constructs; made in house
Source text: as §1, §2, §3

[3] = molecular target: T3, Akt3-1 (Homo sapiens, UniProt Q9Y243); experiment: Kinase inhibition, 33P transfer to plate-bound substrate: Akt3-1
T3 construct: Kinases are expressed as either kinase domains or full-length constructs; made in house
Source text: as §1, §2, §3

[4] = molecular target: T4, Tek-1 (Homo sapiens, UniProt Q02763); experiment: Kinase inhibition, 33P transfer to plate-bound substrate: Tek-1
T4 construct: Kinases are expressed as either kinase domains or full-length constructs; made in house
Source text: as §1, §2, §3

[5] = molecular target: T5, Lck-2 (Homo sapiens, UniProt P06239); experiment: Kinase inhibition, 33P transfer to plate-bound substrate: Lck-2
T5 construct: Kinases are expressed as either kinase domains or full-length constructs; made in house
Source text: as §1, §2, §3

[6] = molecular target: T6, Zap-1 (Homo sapiens, UniProt P43403); experiment: Kinase inhibition, 33P transfer to plate-bound substrate: Zap-1
T6 construct: Kinases are expressed as either kinase domains or full-length constructs; made in house
T6 sequence (P43403 1-619): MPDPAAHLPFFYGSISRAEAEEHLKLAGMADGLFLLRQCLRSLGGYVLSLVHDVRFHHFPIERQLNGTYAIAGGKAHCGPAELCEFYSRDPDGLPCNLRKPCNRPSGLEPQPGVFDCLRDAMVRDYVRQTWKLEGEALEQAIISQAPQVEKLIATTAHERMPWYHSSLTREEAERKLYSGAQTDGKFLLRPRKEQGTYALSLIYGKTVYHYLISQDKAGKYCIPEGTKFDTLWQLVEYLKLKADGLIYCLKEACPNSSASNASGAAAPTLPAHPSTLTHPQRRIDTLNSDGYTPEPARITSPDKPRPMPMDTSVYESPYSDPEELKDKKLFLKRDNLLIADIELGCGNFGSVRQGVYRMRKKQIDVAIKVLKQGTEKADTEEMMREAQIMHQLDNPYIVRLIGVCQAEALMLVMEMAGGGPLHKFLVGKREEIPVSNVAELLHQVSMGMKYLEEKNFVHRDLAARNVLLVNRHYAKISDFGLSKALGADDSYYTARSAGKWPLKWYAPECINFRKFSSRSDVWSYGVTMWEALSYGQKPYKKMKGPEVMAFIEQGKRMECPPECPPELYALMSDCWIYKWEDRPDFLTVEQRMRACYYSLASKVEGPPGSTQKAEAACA
Source text: as §1, §2, §3

[7] = molecular target: T7, EGFR-1 (Homo sapiens, UniProt P00533); experiment: Kinase inhibition, 33P transfer to plate-bound substrate: EGFR-1
T7 construct: Kinases are expressed as either kinase domains or full-length constructs; made in house
Source text: as §1, §2, §3

[8] = molecular target: T8, Met-1 (Homo sapiens, UniProt P08581); experiment: Kinase inhibition, 33P transfer to plate-bound substrate: Met-1
T8 construct: Kinases are expressed as either kinase domains or full-length constructs; made in house
Source text: as §1, §2, §3

[9] = molecular target: T9, ErbB2-1 (Homo sapiens, UniProt P04626); experiment: Kinase inhibition, 33P transfer to plate-bound substrate: ErbB2-1
T9 construct: Kinases are expressed as either kinase domains or full-length constructs; made in house
Source text: as §1, §2, §3

[10] = molecular target: T10, PDGFRB (Homo sapiens, UniProt P09619); experiment: Kinase inhibition, 33P transfer to plate-bound substrate: PDGFRB
T10 construct: Kinases are expressed as either kinase domains or full-length constructs; made in house
Source text: as §1, §2, §3

[11] = molecular target: T11, Itk-1 (Homo sapiens, UniProt Q08881); experiment: Kinase inhibition, 33P transfer to plate-bound substrate: Itk-1
T11 construct: Kinases are expressed as either kinase domains or full-length constructs; made in house
T11 sequence (Q08881 1-620): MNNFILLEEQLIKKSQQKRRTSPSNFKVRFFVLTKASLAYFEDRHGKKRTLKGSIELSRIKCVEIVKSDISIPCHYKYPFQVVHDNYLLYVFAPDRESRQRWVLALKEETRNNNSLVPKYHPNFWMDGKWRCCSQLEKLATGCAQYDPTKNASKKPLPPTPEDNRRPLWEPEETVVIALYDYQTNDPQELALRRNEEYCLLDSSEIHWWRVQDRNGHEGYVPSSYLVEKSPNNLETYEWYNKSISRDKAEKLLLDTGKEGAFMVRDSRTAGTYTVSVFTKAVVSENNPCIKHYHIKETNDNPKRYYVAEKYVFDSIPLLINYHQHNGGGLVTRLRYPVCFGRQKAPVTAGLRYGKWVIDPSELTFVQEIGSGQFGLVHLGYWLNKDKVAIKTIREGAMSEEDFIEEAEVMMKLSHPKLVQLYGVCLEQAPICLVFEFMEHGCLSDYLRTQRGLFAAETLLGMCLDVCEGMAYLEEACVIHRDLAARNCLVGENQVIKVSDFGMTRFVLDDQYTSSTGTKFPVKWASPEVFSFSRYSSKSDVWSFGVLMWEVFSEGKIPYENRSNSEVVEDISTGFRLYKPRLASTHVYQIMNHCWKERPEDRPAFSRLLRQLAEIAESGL
Source text: as §1, §2, §3

[12] = molecular target: T12, IGFR-1 (Homo sapiens, UniProt P08069); experiment: Kinase inhibition, 33P transfer to plate-bound substrate: IGFR-1
T12 construct: Kinases are expressed as either kinase domains or full-length constructs; made in house
Source text: as §1, §2, §3

[13] = molecular target: T13, Src-1 (Homo sapiens, UniProt P12931); experiment: Kinase inhibition, 33P transfer to plate-bound substrate: Src-1
T13 construct: Kinases are expressed as either kinase domains or full-length constructs; made in house
Source text: as §1, §2, §3

[14] = molecular target: T14, Lyn-1 (Homo sapiens, UniProt P07948); experiment: Kinase inhibition, 33P transfer to plate-bound substrate: Lyn-1
T14 construct: Kinases are expressed as either kinase domains or full-length constructs; made in house
Source text: as §1, §2, §3

[15] = molecular target: T15, Fyn-1 (Homo sapiens, UniProt P06241); experiment: Kinase inhibition, 33P transfer to plate-bound substrate: Fyn-1
T15 construct: Kinases are expressed as either kinase domains or full-length constructs; made in house
Source text: as §1, §2, §3

[16] = molecular target: T16, InsR-1 (Homo sapiens, UniProt P06213); experiment: Kinase inhibition, 33P transfer to plate-bound substrate: InsR-1
T16 construct: Kinases are expressed as either kinase domains or full-length constructs; made in house
Source text: as §1, §2, §3

[17] = molecular target: T17, Flt1-1 (Homo sapiens, UniProt P17948); experiment: Kinase inhibition, 33P transfer to plate-bound substrate: Flt1-1
T17 construct: Kinases are expressed as either kinase domains or full-length constructs; made in house
Source text: as §1, §2, §3

[18] = molecular target: T18, ErbB4-1 (Homo sapiens, UniProt Q15303); experiment: Kinase inhibition, 33P transfer to plate-bound substrate: ErbB4-1
T18 construct: Kinases are expressed as either kinase domains or full-length constructs; made in house
Source text: as §1, §2, §3

[19] = molecular target: T19, Ret-1 (Homo sapiens, UniProt P07949); experiment: Kinase inhibition, 33P transfer to plate-bound substrate: Ret-1
T19 construct: Kinases are expressed as either kinase domains or full-length constructs; made in house
Source text: as §1, §2, §3

[20] = molecular target: T20, FGFR1-1 (Homo sapiens, UniProt P11362); experiment: Kinase inhibition, 33P transfer to plate-bound substrate: FGFR1-1
T20 construct: Kinases are expressed as either kinase domains or full-length constructs; made in house
Source text: as §1, §2, §3

T7 sequence (P00533 25-1210): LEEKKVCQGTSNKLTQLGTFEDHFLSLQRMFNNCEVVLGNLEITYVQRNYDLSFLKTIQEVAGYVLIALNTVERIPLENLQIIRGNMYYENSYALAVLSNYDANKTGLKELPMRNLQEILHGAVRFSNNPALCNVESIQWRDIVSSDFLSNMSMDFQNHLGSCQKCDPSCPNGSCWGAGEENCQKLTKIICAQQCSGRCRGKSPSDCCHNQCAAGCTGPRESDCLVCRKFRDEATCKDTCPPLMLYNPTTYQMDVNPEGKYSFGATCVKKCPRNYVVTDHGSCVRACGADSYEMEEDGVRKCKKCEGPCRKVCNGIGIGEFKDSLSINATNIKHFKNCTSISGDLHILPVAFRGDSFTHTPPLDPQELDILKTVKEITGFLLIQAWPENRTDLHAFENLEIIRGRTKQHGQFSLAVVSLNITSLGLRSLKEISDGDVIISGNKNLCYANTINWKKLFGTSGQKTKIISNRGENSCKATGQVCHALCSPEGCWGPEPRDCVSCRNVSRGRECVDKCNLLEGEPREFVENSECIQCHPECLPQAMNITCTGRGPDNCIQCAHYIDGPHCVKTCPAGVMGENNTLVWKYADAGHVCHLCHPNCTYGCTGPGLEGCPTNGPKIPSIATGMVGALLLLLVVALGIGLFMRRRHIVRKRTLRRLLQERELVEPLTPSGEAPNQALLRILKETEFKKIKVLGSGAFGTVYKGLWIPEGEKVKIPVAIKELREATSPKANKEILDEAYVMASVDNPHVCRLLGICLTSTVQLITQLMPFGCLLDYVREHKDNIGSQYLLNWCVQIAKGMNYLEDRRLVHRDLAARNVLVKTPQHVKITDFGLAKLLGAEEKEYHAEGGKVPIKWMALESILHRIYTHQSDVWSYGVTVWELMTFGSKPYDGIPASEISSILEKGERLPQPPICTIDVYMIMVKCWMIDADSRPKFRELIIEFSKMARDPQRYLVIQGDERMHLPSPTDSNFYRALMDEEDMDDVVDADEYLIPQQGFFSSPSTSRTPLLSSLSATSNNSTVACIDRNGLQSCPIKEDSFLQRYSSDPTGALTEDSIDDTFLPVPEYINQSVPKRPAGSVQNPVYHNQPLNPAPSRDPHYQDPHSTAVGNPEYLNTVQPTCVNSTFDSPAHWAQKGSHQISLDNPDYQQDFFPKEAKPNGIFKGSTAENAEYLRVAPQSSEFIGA
T10 sequence (P09619 33-1106, species assumed): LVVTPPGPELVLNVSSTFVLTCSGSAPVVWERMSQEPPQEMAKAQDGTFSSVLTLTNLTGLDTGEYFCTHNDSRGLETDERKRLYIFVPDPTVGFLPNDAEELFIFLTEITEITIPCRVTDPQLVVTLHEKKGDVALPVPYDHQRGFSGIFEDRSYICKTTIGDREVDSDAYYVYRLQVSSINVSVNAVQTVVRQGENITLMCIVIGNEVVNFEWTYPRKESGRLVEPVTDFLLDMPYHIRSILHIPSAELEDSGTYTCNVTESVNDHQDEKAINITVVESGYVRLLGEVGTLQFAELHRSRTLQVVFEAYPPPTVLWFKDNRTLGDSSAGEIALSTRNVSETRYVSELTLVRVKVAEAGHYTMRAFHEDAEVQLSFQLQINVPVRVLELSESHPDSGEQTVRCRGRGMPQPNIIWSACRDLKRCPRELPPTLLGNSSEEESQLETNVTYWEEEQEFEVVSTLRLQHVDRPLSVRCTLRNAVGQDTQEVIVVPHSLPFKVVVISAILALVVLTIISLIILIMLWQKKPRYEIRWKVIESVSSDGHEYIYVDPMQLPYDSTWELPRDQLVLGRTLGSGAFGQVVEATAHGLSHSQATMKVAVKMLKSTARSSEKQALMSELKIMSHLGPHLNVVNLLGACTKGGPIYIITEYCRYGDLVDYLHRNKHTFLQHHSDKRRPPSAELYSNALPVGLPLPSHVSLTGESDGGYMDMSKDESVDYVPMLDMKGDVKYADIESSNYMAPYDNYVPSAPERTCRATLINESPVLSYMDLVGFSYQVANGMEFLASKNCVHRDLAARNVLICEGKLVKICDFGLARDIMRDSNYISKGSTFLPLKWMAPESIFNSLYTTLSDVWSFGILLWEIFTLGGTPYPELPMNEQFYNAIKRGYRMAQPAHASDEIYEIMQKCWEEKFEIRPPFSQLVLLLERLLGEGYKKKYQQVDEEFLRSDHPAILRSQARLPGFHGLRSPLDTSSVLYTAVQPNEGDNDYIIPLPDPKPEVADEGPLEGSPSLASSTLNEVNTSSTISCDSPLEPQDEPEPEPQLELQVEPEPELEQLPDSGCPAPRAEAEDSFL
T9 sequence (P04626 23-1255): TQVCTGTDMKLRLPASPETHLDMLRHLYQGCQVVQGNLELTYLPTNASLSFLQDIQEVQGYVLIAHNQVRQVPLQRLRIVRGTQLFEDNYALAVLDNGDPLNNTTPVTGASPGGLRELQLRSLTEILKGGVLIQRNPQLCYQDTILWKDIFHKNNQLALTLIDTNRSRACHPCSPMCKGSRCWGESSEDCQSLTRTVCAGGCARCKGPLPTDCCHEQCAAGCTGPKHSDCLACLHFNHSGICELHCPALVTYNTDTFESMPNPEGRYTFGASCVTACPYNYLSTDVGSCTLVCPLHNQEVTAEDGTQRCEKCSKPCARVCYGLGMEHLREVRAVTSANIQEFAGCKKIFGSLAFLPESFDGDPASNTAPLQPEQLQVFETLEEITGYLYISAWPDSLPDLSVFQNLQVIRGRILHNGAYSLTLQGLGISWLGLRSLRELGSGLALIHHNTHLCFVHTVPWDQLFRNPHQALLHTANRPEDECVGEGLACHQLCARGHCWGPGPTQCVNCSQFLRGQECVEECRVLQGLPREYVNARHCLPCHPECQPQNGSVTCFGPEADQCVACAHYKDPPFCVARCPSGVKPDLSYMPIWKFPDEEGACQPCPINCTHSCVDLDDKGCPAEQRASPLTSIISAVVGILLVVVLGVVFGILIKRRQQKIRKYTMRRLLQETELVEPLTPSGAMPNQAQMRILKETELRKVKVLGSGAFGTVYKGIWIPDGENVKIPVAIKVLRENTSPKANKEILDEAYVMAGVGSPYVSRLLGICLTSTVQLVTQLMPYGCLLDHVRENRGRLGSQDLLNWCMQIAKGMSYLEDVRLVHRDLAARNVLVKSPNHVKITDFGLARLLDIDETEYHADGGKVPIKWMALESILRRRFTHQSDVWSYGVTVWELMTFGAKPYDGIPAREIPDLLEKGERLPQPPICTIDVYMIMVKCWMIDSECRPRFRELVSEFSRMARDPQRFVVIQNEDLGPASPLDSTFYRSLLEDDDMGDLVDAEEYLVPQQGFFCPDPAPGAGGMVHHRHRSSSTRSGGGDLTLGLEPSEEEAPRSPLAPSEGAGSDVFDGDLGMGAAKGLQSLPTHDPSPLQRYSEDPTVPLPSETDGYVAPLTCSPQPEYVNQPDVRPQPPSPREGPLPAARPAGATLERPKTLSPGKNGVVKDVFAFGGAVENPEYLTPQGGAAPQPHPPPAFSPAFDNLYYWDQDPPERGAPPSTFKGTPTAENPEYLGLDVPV
T2 sequence (P06239 whole entry, the tested form may be a part): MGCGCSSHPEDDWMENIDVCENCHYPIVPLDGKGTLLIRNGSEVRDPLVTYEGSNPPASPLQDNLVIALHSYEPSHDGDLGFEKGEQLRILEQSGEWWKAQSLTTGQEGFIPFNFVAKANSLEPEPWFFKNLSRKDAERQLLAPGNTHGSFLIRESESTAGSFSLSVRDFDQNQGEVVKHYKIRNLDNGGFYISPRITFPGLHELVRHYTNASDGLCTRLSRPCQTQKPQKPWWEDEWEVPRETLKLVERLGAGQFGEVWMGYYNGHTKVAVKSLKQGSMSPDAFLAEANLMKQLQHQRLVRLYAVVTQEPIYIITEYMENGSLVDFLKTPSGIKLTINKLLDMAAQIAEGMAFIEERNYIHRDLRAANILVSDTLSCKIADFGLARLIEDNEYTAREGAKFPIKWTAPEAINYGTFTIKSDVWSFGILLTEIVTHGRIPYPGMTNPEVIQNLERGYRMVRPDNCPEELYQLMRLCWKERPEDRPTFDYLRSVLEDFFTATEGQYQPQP
T5 sequence (P06239 whole entry, the tested form may be a part): as above
T3 sequence (Q9Y243 whole entry, the tested form may be a part): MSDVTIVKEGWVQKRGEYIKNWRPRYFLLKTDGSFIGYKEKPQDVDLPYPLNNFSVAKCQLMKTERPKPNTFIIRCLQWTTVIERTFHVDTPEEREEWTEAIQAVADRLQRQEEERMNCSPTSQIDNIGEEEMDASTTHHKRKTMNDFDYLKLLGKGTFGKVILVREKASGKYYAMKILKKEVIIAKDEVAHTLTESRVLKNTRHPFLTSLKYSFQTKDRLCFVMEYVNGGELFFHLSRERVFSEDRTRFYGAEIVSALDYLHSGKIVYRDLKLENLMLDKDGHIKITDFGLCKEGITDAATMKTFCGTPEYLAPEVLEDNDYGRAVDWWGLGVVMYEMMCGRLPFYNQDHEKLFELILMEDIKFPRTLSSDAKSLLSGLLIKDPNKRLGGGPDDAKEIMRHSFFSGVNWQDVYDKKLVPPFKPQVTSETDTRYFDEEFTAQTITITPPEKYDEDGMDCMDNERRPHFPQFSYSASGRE
T14 sequence (P07948 whole entry, the tested form may be a part): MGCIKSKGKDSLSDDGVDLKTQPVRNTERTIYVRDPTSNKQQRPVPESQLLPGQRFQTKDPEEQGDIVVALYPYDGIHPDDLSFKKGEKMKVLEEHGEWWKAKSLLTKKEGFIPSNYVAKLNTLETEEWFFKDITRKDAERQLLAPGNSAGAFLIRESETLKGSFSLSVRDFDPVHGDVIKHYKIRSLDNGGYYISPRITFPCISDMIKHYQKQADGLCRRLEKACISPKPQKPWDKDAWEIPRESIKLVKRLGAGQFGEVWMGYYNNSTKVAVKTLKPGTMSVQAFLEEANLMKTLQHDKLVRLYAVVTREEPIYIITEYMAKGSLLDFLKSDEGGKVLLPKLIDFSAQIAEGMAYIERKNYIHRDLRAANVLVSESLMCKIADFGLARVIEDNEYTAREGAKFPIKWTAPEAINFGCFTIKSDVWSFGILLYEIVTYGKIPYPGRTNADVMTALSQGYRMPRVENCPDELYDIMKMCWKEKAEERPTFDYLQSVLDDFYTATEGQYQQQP

Row | Structure (SMILES) | IC50 [1] | IC50 [2] | IC50 [3] | IC50 [4] | IC50 [5] | IC50 [6] | IC50 [7] | IC50 [8] | IC50 [9] | IC50 [10] | IC50 [11] | IC50 [12] | IC50 [13] | IC50 [14] | IC50 [15] | IC50 [16] | IC50 [17] | IC50 [18] | IC50 [19] | IC50 [20]
1 | COc1cc(Nc2ccnc(-n3ccc4ccccc43)n2)cc(OC)c1OC [Compound 32] | 5 to 10 µM | ≥ 10 µM | ≥ 10 µM | ≥ 10 µM | ≥ 10 µM | ≥ 10 µM | ≥ 10 µM | ≥ 10 µM |  |  |  |  |  |  |  |  |  |  |  | 
2 | COc1cc(Nc2nccc(-n3ccc(-c4ccc(Cl)cc4)n3)n2)cc(OC)c1OC [Compound 33] | ≥ 10 µM | ≥ 10 µM | ≥ 10 µM |  | ≥ 10 µM | 5 to 10 µM | ≥ 10 µM | ≥ 10 µM | ≥ 10 µM | ≥ 10 µM | ≥ 10 µM | ≥ 10 µM |  |  |  |  |  |  |  | 
3 | COc1ccc(-c2ccn(-c3ccnc(Nc4cc(OC)c(OC)c(OC)c4)n3)n2)cc1 [Compound 34] | ≥ 10 µM | ≥ 10 µM | ≥ 10 µM |  | ≥ 10 µM | 5 to 10 µM | 5 to 10 µM | ≥ 10 µM | ≥ 10 µM | ≥ 10 µM | ≥ 10 µM | ≥ 10 µM |  |  |  |  |  |  |  | 
4 | COc1cc(Nc2nccc(Nc3cc(C(C)(C)C)n[nH]3)n2)cc(OC)c1OC [Compound 35] | 1.5 to 5 µM | < 1.5 µM | ≥ 10 µM |  | < 1.5 µM | ≥ 10 µM | 5 to 10 µM | < 1.5 µM | ≥ 10 µM | 1.5 to 5 µM | 1.5 to 5 µM | < 1.5 µM | < 1.5 µM | < 1.5 µM | 1.5 to 5 µM | < 1.5 µM | 5 to 10 µM | 5 to 10 µM | 1.5 to 5 µM | 5 to 10 µM
